Data published in ChEMBL document CHEMBL3822439, “Discovery of a novel 6,7-disubstituted-4-(2-fluorophenoxy)quinolines bearing 1,2,3-triazole-4-carboxamide moiety as potent c-Met kinase inhibitors” (Eur J Med Chem, 2016).

What was measured:
[1] = Cytotoxicity against human H460 cells measured after 72 hrs by MTT assay; settings: NCI-H460, 72 h
A549 [2] = test: Cytotoxicity against human A549 cells measured after 72 hrs by MTT assay; type: functional, cell-based; settings: A549, 72 h
HT-29 [3] = test: Cytotoxicity against human HT-29 cells measured after 72 hrs by MTT assay; settings: HT-29, 72 h
[4] = Cytotoxicity against human MKN45 cells measured after 72 hrs by MTT assay; type: functional, cell-based; settings: MKN-45, 72 h
HT-29 [5] = test: Potency index, ratio of foretinib IC50 to compound IC50 for human HT-29 cells; type: functional
[6] = molecular target: T1, Receptor-type tyrosine-protein kinase FLT3 (Homo sapiens, UniProt P36888); test: Inhibition of FLT3 (unknown origin) using poly (Glu, Tyr) 4:1 as substrate incubated for 30 mins by HTRF assay
T1 sequence (P36888 whole entry): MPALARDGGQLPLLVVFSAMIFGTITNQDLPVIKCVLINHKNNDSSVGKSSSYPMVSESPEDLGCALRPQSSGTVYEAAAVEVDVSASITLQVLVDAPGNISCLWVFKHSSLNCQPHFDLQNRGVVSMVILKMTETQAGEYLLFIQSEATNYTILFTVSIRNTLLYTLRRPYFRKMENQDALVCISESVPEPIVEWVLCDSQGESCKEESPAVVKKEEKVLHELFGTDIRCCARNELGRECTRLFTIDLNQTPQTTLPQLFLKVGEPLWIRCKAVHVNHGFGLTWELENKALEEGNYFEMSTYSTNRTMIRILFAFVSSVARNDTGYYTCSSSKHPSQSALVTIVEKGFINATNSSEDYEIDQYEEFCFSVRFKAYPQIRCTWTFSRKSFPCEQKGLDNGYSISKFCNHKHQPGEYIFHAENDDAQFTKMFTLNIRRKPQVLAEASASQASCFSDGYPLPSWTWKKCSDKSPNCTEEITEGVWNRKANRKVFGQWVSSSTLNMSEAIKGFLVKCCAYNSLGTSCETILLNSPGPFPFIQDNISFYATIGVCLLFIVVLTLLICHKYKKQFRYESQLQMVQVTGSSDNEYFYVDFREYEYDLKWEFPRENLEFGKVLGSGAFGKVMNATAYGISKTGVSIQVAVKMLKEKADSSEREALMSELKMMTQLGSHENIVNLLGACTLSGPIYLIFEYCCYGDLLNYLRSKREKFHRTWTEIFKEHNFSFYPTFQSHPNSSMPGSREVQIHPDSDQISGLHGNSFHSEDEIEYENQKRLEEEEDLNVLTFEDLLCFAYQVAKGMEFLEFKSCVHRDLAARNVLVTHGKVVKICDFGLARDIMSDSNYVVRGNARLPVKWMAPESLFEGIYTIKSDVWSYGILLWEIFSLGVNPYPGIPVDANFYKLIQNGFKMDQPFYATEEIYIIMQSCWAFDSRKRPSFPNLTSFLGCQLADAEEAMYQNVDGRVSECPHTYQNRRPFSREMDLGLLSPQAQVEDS

MKN-45 = test: Potency index, ratio of foretinib IC50 to compound IC50 for human MKN45 cells; type: functional
[7] = molecular target: Vascular endothelial growth factor receptor 2 (Homo sapiens, UniProt P35968); test: Inhibition of VEGFR2 (unknown origin) using poly (Glu, Tyr) 4:1 as substrate incubated for 30 mins by HTRF assay
Vascular endothelial growth factor receptor 2, sequence (P35968 whole entry): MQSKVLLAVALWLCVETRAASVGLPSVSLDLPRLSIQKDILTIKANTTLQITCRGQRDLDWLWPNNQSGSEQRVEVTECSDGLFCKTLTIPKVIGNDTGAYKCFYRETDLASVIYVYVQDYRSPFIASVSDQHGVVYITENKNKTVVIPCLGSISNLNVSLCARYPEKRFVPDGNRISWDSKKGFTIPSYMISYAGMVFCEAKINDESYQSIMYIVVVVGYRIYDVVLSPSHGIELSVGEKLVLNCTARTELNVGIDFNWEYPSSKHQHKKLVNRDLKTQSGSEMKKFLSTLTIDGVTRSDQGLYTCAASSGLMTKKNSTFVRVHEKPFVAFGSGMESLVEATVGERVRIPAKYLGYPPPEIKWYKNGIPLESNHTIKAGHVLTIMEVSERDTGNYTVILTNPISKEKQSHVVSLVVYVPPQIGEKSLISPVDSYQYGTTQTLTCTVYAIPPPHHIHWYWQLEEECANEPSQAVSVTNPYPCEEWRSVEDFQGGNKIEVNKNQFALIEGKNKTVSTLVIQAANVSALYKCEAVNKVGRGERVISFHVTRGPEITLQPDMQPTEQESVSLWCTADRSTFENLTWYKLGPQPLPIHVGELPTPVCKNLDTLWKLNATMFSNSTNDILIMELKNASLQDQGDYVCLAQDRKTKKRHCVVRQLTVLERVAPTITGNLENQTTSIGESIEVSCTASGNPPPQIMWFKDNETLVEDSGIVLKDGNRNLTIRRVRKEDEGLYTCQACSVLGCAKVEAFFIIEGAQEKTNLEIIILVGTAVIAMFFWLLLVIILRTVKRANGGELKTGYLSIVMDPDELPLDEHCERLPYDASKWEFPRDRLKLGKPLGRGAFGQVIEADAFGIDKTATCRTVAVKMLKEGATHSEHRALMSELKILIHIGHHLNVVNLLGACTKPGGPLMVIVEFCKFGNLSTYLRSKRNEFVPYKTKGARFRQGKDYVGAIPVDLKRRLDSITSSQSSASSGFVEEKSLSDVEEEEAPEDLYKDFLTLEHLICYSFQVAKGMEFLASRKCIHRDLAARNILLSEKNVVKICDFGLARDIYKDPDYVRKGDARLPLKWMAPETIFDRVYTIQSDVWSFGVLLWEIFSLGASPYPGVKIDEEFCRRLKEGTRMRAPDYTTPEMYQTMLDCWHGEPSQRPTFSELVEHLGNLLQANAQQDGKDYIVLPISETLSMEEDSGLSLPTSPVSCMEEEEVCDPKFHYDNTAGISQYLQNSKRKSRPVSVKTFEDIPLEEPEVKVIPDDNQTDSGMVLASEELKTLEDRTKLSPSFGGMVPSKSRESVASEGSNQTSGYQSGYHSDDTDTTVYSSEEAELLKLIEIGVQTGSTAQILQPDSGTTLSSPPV

A549 [8] = test: Potency index, ratio of foretinib IC50 to compound IC50 for human A549 cells; type: functional
[9] = molecular target: Mast/stem cell growth factor receptor Kit (Homo sapiens, UniProt P10721); test: Inhibition of c-kit (unknown origin) using poly (Glu, Tyr) 4:1 as substrate incubated for 30 mins by HTRF assay
Mast/stem cell growth factor receptor Kit, sequence (P10721 whole entry): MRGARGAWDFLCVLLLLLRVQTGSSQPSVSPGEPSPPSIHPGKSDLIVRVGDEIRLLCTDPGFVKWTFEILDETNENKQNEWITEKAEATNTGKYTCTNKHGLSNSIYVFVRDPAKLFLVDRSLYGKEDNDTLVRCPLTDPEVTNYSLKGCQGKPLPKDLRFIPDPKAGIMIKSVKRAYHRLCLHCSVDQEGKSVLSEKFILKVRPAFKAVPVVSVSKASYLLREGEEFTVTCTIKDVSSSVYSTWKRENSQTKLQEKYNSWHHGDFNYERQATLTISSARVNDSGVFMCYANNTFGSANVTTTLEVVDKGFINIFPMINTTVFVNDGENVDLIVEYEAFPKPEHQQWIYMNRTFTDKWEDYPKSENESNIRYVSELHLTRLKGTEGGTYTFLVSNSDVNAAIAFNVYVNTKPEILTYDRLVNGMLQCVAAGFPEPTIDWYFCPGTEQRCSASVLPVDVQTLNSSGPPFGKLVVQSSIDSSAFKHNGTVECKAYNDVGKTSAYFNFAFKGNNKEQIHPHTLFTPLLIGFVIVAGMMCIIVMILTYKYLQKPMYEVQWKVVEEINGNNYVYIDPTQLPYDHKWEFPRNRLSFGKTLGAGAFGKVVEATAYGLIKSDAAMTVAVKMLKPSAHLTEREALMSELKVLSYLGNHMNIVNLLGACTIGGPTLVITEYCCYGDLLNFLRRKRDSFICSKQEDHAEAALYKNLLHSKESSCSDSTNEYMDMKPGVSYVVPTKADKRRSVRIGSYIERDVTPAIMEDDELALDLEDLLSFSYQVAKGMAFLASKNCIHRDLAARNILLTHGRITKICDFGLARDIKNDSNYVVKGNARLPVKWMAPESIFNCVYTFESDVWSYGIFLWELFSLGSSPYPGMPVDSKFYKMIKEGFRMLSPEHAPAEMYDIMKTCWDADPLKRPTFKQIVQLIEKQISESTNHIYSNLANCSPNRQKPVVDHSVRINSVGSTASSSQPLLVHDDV

[10] = molecular target: Hepatocyte growth factor receptor (Homo sapiens, UniProt P08581); test: Inhibition of c-Met (unknown origin) using poly (Glu, Tyr) 4:1 as substrate incubated for 30 mins by HTRF assay
Hepatocyte growth factor receptor, sequence (P08581 whole entry): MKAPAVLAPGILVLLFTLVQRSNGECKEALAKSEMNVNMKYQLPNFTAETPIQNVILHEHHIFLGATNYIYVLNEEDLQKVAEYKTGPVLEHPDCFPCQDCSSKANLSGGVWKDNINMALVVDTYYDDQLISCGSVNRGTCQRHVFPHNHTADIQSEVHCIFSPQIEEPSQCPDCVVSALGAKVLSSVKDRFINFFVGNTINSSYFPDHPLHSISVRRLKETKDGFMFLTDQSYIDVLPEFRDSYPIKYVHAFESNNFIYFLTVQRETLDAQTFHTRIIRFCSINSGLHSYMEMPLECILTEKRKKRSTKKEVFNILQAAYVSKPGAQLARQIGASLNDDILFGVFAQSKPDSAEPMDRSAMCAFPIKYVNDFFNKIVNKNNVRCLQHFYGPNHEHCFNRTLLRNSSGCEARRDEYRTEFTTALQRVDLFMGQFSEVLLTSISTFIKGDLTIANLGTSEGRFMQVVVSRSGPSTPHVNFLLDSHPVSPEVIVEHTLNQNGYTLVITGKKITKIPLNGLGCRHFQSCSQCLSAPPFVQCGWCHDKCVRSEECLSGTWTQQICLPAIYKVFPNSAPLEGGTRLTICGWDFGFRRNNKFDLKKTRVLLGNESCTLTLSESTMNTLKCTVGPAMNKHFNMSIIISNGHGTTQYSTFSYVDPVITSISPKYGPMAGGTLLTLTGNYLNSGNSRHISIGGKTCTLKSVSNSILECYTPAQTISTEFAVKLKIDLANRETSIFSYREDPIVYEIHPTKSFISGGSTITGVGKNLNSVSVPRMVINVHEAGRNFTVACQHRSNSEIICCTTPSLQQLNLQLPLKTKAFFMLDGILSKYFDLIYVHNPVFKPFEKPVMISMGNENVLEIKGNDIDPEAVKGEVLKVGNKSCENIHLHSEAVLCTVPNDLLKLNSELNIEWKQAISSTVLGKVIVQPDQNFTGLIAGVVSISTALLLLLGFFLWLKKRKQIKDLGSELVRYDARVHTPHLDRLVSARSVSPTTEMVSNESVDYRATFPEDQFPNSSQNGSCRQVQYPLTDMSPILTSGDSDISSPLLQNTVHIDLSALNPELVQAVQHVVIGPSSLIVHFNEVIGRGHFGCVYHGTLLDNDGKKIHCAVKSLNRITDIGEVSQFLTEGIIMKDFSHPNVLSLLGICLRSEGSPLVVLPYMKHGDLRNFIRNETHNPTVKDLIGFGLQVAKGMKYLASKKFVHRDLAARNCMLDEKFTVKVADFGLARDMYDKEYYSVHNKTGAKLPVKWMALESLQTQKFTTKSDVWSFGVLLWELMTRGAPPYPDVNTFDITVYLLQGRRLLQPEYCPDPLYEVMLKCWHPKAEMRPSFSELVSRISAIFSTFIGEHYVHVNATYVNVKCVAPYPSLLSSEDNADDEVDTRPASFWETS

[11] = molecular target: Epidermal growth factor receptor (Homo sapiens, UniProt P00533); test: Inhibition of EGFR (unknown origin) using poly (Glu, Tyr) 4:1 as substrate incubated for 30 mins by HTRF assay
[12] = Potency index, ratio of foretinib IC50 to compound IC50 for human H460 cells; type: functional
[13] = molecular target: Macrophage-stimulating protein receptor (Homo sapiens, UniProt Q04912); test: Inhibition of Ron (unknown origin) using poly (Glu, Tyr) 4:1 as substrate incubated for 30 mins by HTRF assay
Macrophage-stimulating protein receptor, sequence (Q04912 25-304 limits assumed): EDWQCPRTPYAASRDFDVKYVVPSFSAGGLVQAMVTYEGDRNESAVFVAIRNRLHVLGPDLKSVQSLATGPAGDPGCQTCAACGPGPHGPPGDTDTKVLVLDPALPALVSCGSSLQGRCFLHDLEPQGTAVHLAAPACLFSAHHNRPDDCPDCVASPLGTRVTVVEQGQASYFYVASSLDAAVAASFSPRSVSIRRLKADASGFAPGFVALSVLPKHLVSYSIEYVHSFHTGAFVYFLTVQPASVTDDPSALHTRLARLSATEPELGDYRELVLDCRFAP
Macrophage-stimulating protein receptor, sequence (Q04912 310-1400 limits assumed): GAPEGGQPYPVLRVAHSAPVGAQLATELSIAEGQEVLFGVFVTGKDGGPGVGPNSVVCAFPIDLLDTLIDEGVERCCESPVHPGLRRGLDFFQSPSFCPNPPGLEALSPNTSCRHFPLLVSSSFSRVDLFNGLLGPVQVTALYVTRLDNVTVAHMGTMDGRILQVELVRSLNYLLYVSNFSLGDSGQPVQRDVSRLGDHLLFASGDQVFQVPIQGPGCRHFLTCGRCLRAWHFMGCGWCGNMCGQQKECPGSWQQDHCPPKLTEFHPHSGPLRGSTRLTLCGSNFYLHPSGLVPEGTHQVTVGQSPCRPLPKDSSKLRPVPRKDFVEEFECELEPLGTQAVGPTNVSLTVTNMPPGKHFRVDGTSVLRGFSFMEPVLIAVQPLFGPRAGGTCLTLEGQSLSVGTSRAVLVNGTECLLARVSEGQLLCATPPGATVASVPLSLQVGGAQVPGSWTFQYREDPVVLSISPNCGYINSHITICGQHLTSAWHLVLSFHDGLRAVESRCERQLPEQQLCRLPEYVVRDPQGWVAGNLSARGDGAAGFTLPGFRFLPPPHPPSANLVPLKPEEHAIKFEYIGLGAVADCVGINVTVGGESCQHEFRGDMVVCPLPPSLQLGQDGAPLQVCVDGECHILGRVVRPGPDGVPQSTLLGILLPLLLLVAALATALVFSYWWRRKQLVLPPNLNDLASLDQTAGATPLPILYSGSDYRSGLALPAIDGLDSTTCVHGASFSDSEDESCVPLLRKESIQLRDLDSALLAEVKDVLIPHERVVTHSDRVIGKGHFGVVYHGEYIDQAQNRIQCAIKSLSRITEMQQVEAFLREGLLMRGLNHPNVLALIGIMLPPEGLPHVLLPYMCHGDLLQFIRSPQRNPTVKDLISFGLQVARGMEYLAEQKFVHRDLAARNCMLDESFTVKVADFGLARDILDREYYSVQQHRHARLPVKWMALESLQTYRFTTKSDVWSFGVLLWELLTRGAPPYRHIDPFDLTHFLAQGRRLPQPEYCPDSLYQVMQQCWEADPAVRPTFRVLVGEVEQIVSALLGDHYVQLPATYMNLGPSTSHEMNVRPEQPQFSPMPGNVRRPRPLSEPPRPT

SMILES | IC50 [1] [nM] | IC50 (A549 [2]) [nM] | IC50 (HT-29 [3]) [nM] | IC50 [4] [nM] | further results
COc1cc2c(Oc3ccc(NC(=O)c4cn(-c5c(C)cccc5C)nn4)cc3F)ccnc2cc1OCCCN1CCC(C)CC1 | 2360 | 3340 | 2450 | 4310 | 
COc1cc2c(Oc3ccc(NC(=O)c4cn(-c5ccc(F)c(F)c5)nn4)cc3F)ccnc2cc1OCCCN1CCN(C)CC1 | 250 | 200 | 430 | 160 | 
COc1cc2c(Oc3ccc(NC(=O)c4cn(-c5ccccc5C)nn4)cc3F)ccnc2cc1OCCCN1CCCCC1 | 2100 | 3230 | 1340 | 3250 | 
COc1cc2c(Oc3ccc(NC(=O)c4cn(-c5ccc(Br)cc5)nn4)cc3F)ccnc2cc1OCCCN1CCCC1 | 200 | 370 | 190 | 120 | 
COc1cc2c(Oc3ccc(NC(=O)c4cn(-c5ccccc5)nn4)cc3F)ccnc2cc1OCCCN1CCN(C)CC1 | 200 | 160 | 180 | 60 | 
COc1cc2c(Oc3ccc(NC(=O)c4cn(-c5ccccc5C)nn4)cc3F)ccnc2cc1OCCCN1CCC(C)CC1 | 2730 | 3500 | 2380 |  | 
COc1cc2c(Oc3ccc(NC(=O)c4cn(-c5ccccc5Cl)nn4)cc3F)ccnc2cc1OCCCN1CCN(C)CC1 | 290 | 150 | 160 | 70 | 
COc1cc2c(Oc3ccc(NC(=O)c4cn(-c5ccc(F)c(F)c5)nn4)cc3F)ccnc2cc1OCCCN1CCC(C)CC1 | 260 | 1460 | 810 | 1290 | 
COc1cc2c(Oc3ccc(NC(=O)c4cn(-c5ccccc5F)nn4)cc3F)ccnc2cc1OCCCN1CCCCC1 | 210 | 2770 | 290 | 1290 | 
COc1cc2c(Oc3ccc(NC(=O)c4cn(-c5c(Cl)cccc5Cl)nn4)cc3F)ccnc2cc1OCCCN1CCOCC1 | 290 |  | 270 | 110 | 
COc1cc2c(Oc3ccc(NC(=O)c4cn(-c5c(C)cccc5C)nn4)cc3F)ccnc2cc1OCCCN1CCOCC1 | 4320 |  | 6140 |  | 
COc1cc2c(Oc3ccc(NC(=O)c4cn(-c5ccccc5)nn4)cc3F)ccnc2cc1OCCCN1CCC(C)CC1 | 210 | 140 | 190 | 90 | 
COc1cc2c(Oc3ccc(NC(=O)c4cn(-c5c(C)cccc5C)nn4)cc3F)ccnc2cc1OCCCN1CCCC1 | 1560 | 1240 | 2240 | 3490 | 
COc1cc2c(Oc3ccc(NC(=O)c4cn(-c5ccccc5Cl)nn4)cc3F)ccnc2cc1OCCCN1CCOCC1 | 210 | 530 | 240 | 270 | 
COc1cc2c(Oc3ccc(NC(=O)c4cn(-c5ccc(Br)cc5)nn4)cc3F)ccnc2cc1OCCCN1CCCCC1 | 360 | 230 | 260 | 150 | 
COc1cc2c(Oc3ccc(NC(=O)c4cn(-c5ccccc5C)nn4)cc3F)ccnc2cc1OCCCN1CCCC1 | 1260 | 900 | 1200 |  | 

SMILES | IC50 [1] [nM] | IC50 (A549 [2]) [nM] | IC50 (HT-29 [3]) [nM] | IC50 [4] [nM] | further results
COc1cc2c(Oc3ccc(NC(=O)c4cn(-c5ccccc5)nn4)cc3F)ccnc2cc1OCCCN1CCCC1 | 280 | 360 | 180 | 260 | 
COc1cc2c(Oc3ccc(NC(=O)c4cn(-c5ccccc5F)nn4)cc3F)ccnc2cc1OCCCN1CCN(C)CC1 | 230 | 250 | 300 | 140 | 
COc1cc2c(Oc3ccc(NC(=O)c4cn(-c5ccc(F)c(F)c5)nn4)cc3F)ccnc2cc1OCCCN1CCCCC1 | 250 | 220 | 210 | 310 | 
COc1cc2c(Oc3ccc(NC(=O)c4cn(-c5ccccc5F)nn4)cc3F)ccnc2cc1OCCCN1CCC(C)CC1 | 190 | 250 | 210 | 130 | 
COc1cc2c(Oc3ccc(NC(=O)c4cn(-c5ccccc5)nn4)cc3F)ccnc2cc1OCCCN1CCOCC1 | 450 | 720 | 350 | 110 | 
COc1cc2c(Oc3ccc(NC(=O)c4cn(-c5c(Cl)cccc5Cl)nn4)cc3F)ccnc2cc1OCCCN1CCCCC1 | 280 | 150 | 240 |  | 
COc1cc2c(Oc3ccc(NC(=O)c4cn(-c5c(C)cccc5C)nn4)cc3F)ccnc2cc1OCCCN1CCN(C)CC1 | 4540 | 2180 | 2170 |  | 
COc1cc2c(Oc3ccc(NC(=O)c4cn(-c5ccccc5Cl)nn4)cc3F)ccnc2cc1OCCCN1CCCC1 | 190 | 330 | 150 | 70 | 
COc1cc2c(Oc3ccc(NC(=O)c4cn(-c5ccccc5Cl)nn4)cc3F)ccnc2cc1OCCCN1CCCCC1 | 180 | 70 | 100 | 30 | Ratio IC50 (HT-29 [5]): 1.9; IC50 [6]: 8.91 nM; Ratio IC50 (MKN-45): 1.1; IC50 [7]: 96.7 nM; Ratio IC50 (A549 [8]): 1.6; IC50 [9]: 9.36 nM; IC50 [10]: 2.27 nM; IC50 [11]: 529 nM; Ratio IC50 [12]: 1.2; IC50 [13]: 346 nM
COc1cc2c(Oc3ccc(NC(=O)c4cn(-c5c(Cl)cccc5Cl)nn4)cc3F)ccnc2cc1OCCCN1CCC(C)CC1 | 270 | 320 | 1390 | 120 | 
COc1cc2c(Oc3ccc(NC(=O)c4cn(-c5ccccc5)nn4)cc3F)ccnc2cc1OCCCN1CCCCC1 | 210 | 130 | 180 | 100 | 
COc1cc2c(Oc3ccc(NC(=O)c4cn(-c5ccccc5Cl)nn4)cc3F)ccnc2cc1OCCCN1CCC(C)CC1 | 230 | 370 | 130 | 240 | 
COc1cc2c(Oc3ccc(NC(=O)c4cn(-c5ccc(Br)cc5)nn4)cc3F)ccnc2cc1OCCCN1CCOCC1 | 130 | 180 | 260 | 90 | 
COc1cc2c(Oc3ccc(NC(=O)c4cn(-c5ccccc5C)nn4)cc3F)ccnc2cc1OCCCN1CCN(C)CC1 | 3650 | 3100 | 1430 |  | 
COc1cc2c(Oc3ccc(NC(=O)c4cn(-c5c(C)cccc5C)nn4)cc3F)ccnc2cc1OCCCN1CCCCC1 | 3520 |  | 3690 | 2140 | 
